The target of one test is mouse P23H-opsin mutant (Mus musculus, UniProt P15409, P23H). In words: β-Gal fragment complementation assay: rescue of P23H opsin transport from ER to plasma membrane, U2OS(PLC-EA/P23H-PK) cells. Type of test: cell-based. The following applies: for β-Gal fragment complementation assay Activity score (%) Max (Exp) / β-Gal fragment complementation assay Activity score (%) Max (fit) / Efficacy: 24 h, 5 µM 9-cis-retinal = 100%; for β-Gal fragment complementation assay Activity score (%) Max (Exp): experimental maximum; for β-Gal fragment complementation assay Activity score (%) Max (fit) / Efficacy: from curve fitting; for EC50: 24 h preincubation, activity standardized to 5 µM 9-cis-retinal as 100%, Hill fit, read-out: β-Gal fragment complementation assay Activity score (%) EC50. The text has this: U2OS(PLC-EA/P23H-PK) cells. A U2OS stable cell line was generated by DiscoveRx, Inc. (Fremont, CA, USA) for the β-Gal fragment complementation assay used in the small-molecule HTS for rescue of P23H-opsin transport. U2OS cells that continually express P23H-PK and PLC-EA fusion proteins were generated. Briefly, this small subunit of β-Gal (PK fragment) was fused to the C-terminal of the mouse P23H-opsin mutant, while the large EA fragment, a subunit of β-Gal, was fused with PLC, a plasma membrane-anchored peptide. Both constructs were subcloned by DicoveRx, Inc. and transferred into U2OS cells by viral infections. Positive clones were selected under treatment with hygromycin and geneticin.
Briefly, U2OS(PLC-EA /P23H-PK) cells were suspended in assay medium at 3 × 10^5 cells mL^−1. The cell suspension was dispensed into 384-well plates (Greiner Bio-one, Monroe, NC, USA) at 20 µL per well, with a Multidrop dispenser (Thermo Scientific, Waltham, MA, USA). Plates with cells then were centrifuged at 200×g for 15 s before incubation at 37 °C with 5% CO2. Plates were removed 24 h later for treatment with tested compounds. A total of 248 plates containing 79,080 compounds from three small-molecule libraries were paired with an equal number of assay plates with cultured cells. Owing to a limited capacity, these plates were assayed in seven batches. An average of 56.3 nL of 10 mM compound in DMSO was dispensed into each well from column 3 to 22 of paired assay plates using a 50 nL 384-pintool system, such that the final concentration of each compound was 22.52 µM on average. […] Each assay plate was shaken for 5 s before further incubation at 37 °C with 5% CO2. After 24 h, assay plates were removed, and each well was incubated with 25 µL of 1× Gal-Screen assay buffer (1:24 substrate-buffer ratio). Assay plates were incubated in the dark for 60–90 min, and luminescence was read from each assay plate with an Envision microplate reader (PerkinElmer) during a 0.1 s per well integration time. The mean and s.d. of readouts in column 2 of each plate were calculated as Mean0% and SD0%, whereas the average and s.d. of readouts in column 23 were calculated as Mean100% and SD100%. Eq. 1: Activity scores (%) = (RLUcp − Mean0%)/(Mean100% − Mean0%) × 100%, where RLUcp is the relative luminescence unit derived for cells treated with a compound. Eq. 2: Z′-factor = 1–3 × (SD0% + SD100%)/(Mean100% − Mean0%)[32]; Eq. 3: signal-to-background (S/B) ratio = Mean100%/Mean0%. Activities of all tested compounds were registered with their compound ID by GeneData Screener (Genedata, Basel, Switzerland) and Pipeline Pilot software (Accelrys, San Diego, CA, USA). Hits, cherry-picked from a separate stock dose-dependent activity test, were selected with an activity score cutoff at 20%. Activity of each hit was tested again with the β-Gal fragment complementation assay in a 10-dose series with each dose tested in triplicate. The 10 doses tested were 80, 40, 20, 10, 5, 2.5, 1.25, 0.625, 0.313, and 0.156 µM. Dose-dependent curves of each hit compound were fitted with GeneData and Origin software.
Detailed synthetic steps are described in Supplementary Note and Supplementary Fig. 9. […] YC-002-YC-021 were purchased from commercial vendors including Enamine LLC (Monmouth Jct., NJ, USA), Matrix Scientific (Columbia, SC, USA) and Tokyo Chemical Industry Co., Ltd. (Portland, OR, USA). […] Activities of YC compounds were tested with the β-Gal fragment complementation assay, as described in a prior section. All YC compounds were tested at 10 doses, each in triplicate: 80, 40, 20, 10, 5, 2.5, 1.25, 0.625, 0.313, and 0.156 µM.

Another test concerns the target T1, mouse P23H opsin (Mus musculus, UniProt P15409, P23H).
T1 construct: expressed in transfected cells
In words: High-content imaging analysis of P23H opsin immunostaining in NIH3T3-(P23H opsin/GFP) cells. Type of test: cell-based. The following applies: ratio of P23H rod opsin fluorescence on plasma membrane to whole cell; for EC50: read-out: Immunostaining HCS MEM-Total ratio EC50. The method, then:
To characterize the effect of active compounds on the localization of P23H-mutant opsin in mammalian cells, an image-based assay was used with cells immunostained for WT or P23H-mutant opsin protein[18]. Briefly, NIH3T3-(P23H opsin/GFP) or NIH3T3-(WT-opsin/GFP) cells were seeded at 5000 cells per well in a 384-well cell-carrier plate (PerkinElmer) and incubated at 37 °C with 5% CO2 for 2 h. Cells were treated with compounds as described for the β-Gal fragment complementation assay and incubated in assay medium for 24 h. The assay medium then was aspirated, and cells were fixed with 4% paraformaldehyde at 20 µL per well for 20 min at RT. Cells were immunostained in one of two ways: cell membranes were either permeabilized with 0.1% Triton X-100 for 15 min or left intact and then were incubated with 10% goat serum (Life Technologies). To detect opsin on the cell plasma membrane only, intact cells were immunostained with 20 µL per well of 20 µg mL^−1 B6-30 anti-rhodopsin antibody that recognizes the N-terminal epitope on the extracellular side of rhodopsin. To detect total opsin, cells were permeabilized with Triton X-100 and immunostained with 50 µg mL^−1 1D4 anti-rhodopsin antibody specific for the C-terminal epitope on the intracellular side of rhodopsin. Opsin immunostaining was visualized by incubating cells with 5 µg mL^−1 Cy3-conjugated goat anti-mouse IgG antibody. Three washes with phosphate-buffered saline (PBS: 10 mM Na2HPO4, 1.8 mM KH2PO4, pH 7.4, 137 mM NaCl, and 2.7 mM KCl) were performed between each step of incubation with antibody. In the last wash with PBS, DAPI was added to each well at 300 nM. Fluorescence images were obtained with the Operetta High Content Imaging System (PerkinElmer) using a ×20 long objective. Five fields were taken of each well for cell images using three channels for fluorescence: GFP (100 ms), Cy3 (300 ms), and DAPI (50 ms). Images were analyzed with Acapella software from the Columbus data storage and analysis system (PerkinElmer)[18]. For cells immunostained with opsin on the non-permeabilized cell membrane only, an average of total fluorescence intensity of Cy3 per cell was used to quantify opsin in each well of the 384-well plate. For cells immunostained with opsin in permeabilized whole cells, an average ratio of Cy3 intensity on the cell plasma membrane (PM) to that of the entire cell (opsin ratio PM-to-total) was calculated for each well of a 384-well plate to quantify opsin transport to the plasma membrane. The plasma membrane was defined within ± 5% of the cell border.

Another test deals with T2, P23H opsin (Mus musculus, UniProt P15409, P23H).
T2 construct: expressed in transfected cells
In words: Immunoblot of P23H opsin glycosylation in NIH3T3 cell lysates. The test is classed as cell-based. On the set-up: key to Improved glycosylation: n = no; y = yes. The following applies: P23H opsin. The method, then: NIH3T3-(P23H opsin/GFP) or NIH3T3-(WT-opsin/GFP) cells were seeded in a 48-well plate (Corning Costar) at 3.2 × 10^5 cells per well and incubated at 37 °C with 5% CO2 for 2 h. One hundred-µL of assay medium containing a compound at 5× its final concentration was added to each well. The plate was gently shaken for 5 s before further incubation at 37 °C with 5% CO2 for 24 h. The assay medium then was aspirated, and cells were lysed with 100 µL per well PBS containing 0.1% Triton X-100 and complete protease inhibitor cocktail (Roche, Basel, Switzerland) followed by sonication for 3 s. Protein concentrations were determined with the Bradford assay. For PNGaseF catalyzed deglycosylation, 3 µL of PNGaseF (1500 U, NEB) was added to the cell lysate and the mixture was incubated at room temperature for 1 h before immunoblotting. For NIH3T3-(P23H opsin/GFP) cells, 15 µg of total protein were loaded per well onto an SDS-polyacrylamide gel; whereas for NIH3T3-(WT-opsin/GFP) cells, 5 µg of total protein was loaded per well. Opsin protein was immunostained with 0.2 μg mL^−1 horseradish peroxidase-conjugated 1D4 anti-rhodopsin antibody. Band intensities were measured with ImageJ software (http://imagej.nih.gov/ij/; National the Institutes of Health, Bethesda, MD, USA) and normalized to a glyceraldehyde 3-phosphate dehydrogenase (GAPDH) loading control. Full scans of immunoblotted membranes are shown in Supplementary Fig. 8.
On the technique in general: Immunoblotting shows a protein as a band on a membrane.

Test [1] has as its target bovine isorhodopsin (rod opsin regenerated with 9-cis-retinal), photoactivated (bovine) (UniProt P02699).
Test [2] deals with bovine rod opsin in ROS disc membranes (bovine) (UniProt P02699).
bovine rod opsin in ROS disc membranes (bovine), sequence (P02699 whole entry): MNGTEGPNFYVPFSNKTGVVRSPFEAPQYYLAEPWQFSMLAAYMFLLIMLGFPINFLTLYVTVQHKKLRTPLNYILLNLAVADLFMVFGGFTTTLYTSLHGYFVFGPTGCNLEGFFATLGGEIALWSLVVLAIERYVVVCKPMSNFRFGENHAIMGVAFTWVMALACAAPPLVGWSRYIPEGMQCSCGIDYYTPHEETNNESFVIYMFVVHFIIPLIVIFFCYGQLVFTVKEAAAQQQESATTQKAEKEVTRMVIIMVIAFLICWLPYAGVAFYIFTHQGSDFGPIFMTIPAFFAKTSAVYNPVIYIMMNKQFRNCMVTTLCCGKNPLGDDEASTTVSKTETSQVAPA

Gt, sequence (P04695 whole entry, looked up): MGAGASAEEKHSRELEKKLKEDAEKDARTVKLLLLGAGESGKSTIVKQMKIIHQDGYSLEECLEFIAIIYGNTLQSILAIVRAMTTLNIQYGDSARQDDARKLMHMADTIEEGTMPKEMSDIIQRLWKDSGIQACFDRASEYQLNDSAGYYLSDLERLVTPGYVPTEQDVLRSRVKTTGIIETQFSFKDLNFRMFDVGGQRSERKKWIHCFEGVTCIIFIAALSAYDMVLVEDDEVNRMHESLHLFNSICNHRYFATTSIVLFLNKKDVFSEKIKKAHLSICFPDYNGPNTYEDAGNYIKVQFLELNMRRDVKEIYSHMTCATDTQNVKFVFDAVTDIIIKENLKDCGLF
bovine isorhodopsin (rod opsin regenerated with 9-cis-retinal), photoactivated (bovine), sequence (P02699 whole entry): as the sequence (P02699 whole entry) above

`O=C(NCCCOc1cccc2cccnc12)c1cc(-c2ccccc2)on1` [Compound F5875-0200]: at mouse P23H-opsin mutant, the “β-Gal fragment complementation assay Activity score (%) Max (Exp)” value stood at 31.8%, the “β-Gal fragment complementation assay Activity score (%) Max (fit) / Efficacy” value is listed as 51.6% and the EC50 stood at 25 µM. On mouse P23H opsin, the “Immunostaining HCS MEM-Total ratio Max (fit)” value was 0.041 and the EC50 was 6.2 µM. For the same compound, the Improved glycosylation entry at P23H opsin is given as “n”.
In the case of `O=C(NCCCn1cccc1)c1cc(-c2ccccc2)on1` [Compound F5937-0207], at mouse P23H-opsin mutant, the “β-Gal fragment complementation assay Activity score (%) Max (Exp)” value worked out at 32.8%, the “β-Gal fragment complementation assay Activity score (%) Max (fit) / Efficacy” value came to 37.3% and the EC50 is 8.38 µM. On mouse P23H opsin, the “Immunostaining HCS MEM-Total ratio Max (fit)” value worked out at 0.021 and the EC50 was found to be 1.33 µM. Further, the Improved glycosylation result on P23H opsin is on record as “n”.
As for `O=C(NCC#CCN1CCCC1)c1cc(-c2ccccc2)on1` [Compound F6244-1415], on mouse P23H-opsin mutant, the “β-Gal fragment complementation assay Activity score (%) Max (Exp)” value amounted to 24.8%, the “β-Gal fragment complementation assay Activity score (%) Max (fit) / Efficacy” value stood at 25.2% and the EC50 is 8.61 µM. Moreover, on mouse P23H opsin, the “Immunostaining HCS MEM-Total ratio Max (fit)” value was found to be 0.063 and the EC50 is given as 4.2 µM. In addition, the Improved glycosylation entry at P23H opsin is “n”.
For `Cc1cc(OCC(=O)Nc2cc(N3CCOCC3)ncn2)cc(C)c1Cl` [Compound F6257-1860], at mouse P23H-opsin mutant, the “β-Gal fragment complementation assay Activity score (%) Max (Exp)” value is given as 211%, the “β-Gal fragment complementation assay Activity score (%) Max (fit) / Efficacy” value is reported as 234% and the EC50 was found to be 10.7 µM. At mouse P23H opsin, the “Immunostaining HCS MEM-Total ratio Max (fit)” value came to 0.022 and the EC50 turned out to be 1.07 µM. For the same compound, at P23H opsin, the Improved glycosylation entry is given as “n”.
In test [1], “Gt (from UniProt P04695 1-350) (complex)” showed an initial rate of Gt activation upon illumination (intrinsic Gtα fluorescence after addition of 300 µM GTPγS), isorhodopsin regenerated with 40 µM 9-cis-retinal alone of -4.6; an initial rate of Gt activation upon illumination (intrinsic Gtα fluorescence after addition of 300 µM GTPγS), isorhodopsin regenerated with 40 µM 9-cis-retinal and 40 µM YC-001 together of -4.9. In test [2], this compound registered an initial rate of Gt activation (intrinsic Gtα fluorescence after addition of 300 µM GTPγS), opsin membranes treated with 40 µM YC-001 of -6.1; an initial rate of Gt activation (intrinsic Gtα fluorescence after addition of 300 µM GTPγS), opsin membranes treated with 40 µM YC-014 of -5.7; an initial rate of Gt activation (intrinsic Gtα fluorescence after addition of 300 µM GTPγS), opsin membranes treated with DMSO of -5.3.

The values are drawn from publication PMC5958115, “A novel small molecule chaperone of rod opsin and its potential therapy for retinal degeneration” (Nature Communications, 2018).
